Patent publication US20230279025A1, “KRAS G12D INHIBITORS” (Mirati Therapeutics, Inc., priority 2020, published 2023)

molecular target: KRas G12D (Homo sapiens (Human), UniProt P01116, G12D); experiment: KRas G12D Binding Assay (TR-FRET displacement of Cy5 labelled tracer); settings: GDP-loaded KRAS G12D (amino acids 1:169), 60 minute incubation at 22° C.
Description: After a 60 minute incubation at 22° C., the reaction was measured using a PerkinElmer EnVision multimode plate reader via TR-FRET dual wavelength detection, and the percent of control (POC) calculated using a ratiometric emission factor. […] The POC values were fit to a 4-parameter logistic curve and the IC50 value was determined as the concentration where the curve crosses 50 POC.
ND stands for “not determined.”

KRas G12D, sequence (P01116 other isoform, or with tags, fused parts or gaps G12D): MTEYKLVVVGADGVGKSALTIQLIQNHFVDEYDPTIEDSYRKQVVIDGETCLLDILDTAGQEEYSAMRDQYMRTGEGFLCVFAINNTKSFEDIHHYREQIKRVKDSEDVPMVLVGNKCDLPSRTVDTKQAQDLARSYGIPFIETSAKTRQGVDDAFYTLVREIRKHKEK

`CO[C@H](C)COc1nc(N2C[C@H]3CC[C@@H](C2)N3)c2cnc(-c3cccc4cccc(Cl)c34)c(F)c2n1` [Example 138, 4-((1R,5S)-3,8-diazabicyclo[3.2.1]octan-3-yl)-7-(8-chloronaphthalen-1-yl)-8-fluoro-2-((R)-2-methoxypropoxy)pyrido[4,3-d]pyrimidine] was tested. Which IC50 did it give?
Its IC50 is 8070 nM.

With `Nc1ccc(CCOc2nc(N3C[C@H]4CC[C@@H](C3)N4)c3cnc(-c4cccc5cccc(Cl)c45)c(F)c3n2)cn1` [Example 141, 5-(2-((4-((1R,5S)-3,8-diazabicyclo[3.2.1]octan-3-yl)-7-(8-chloronaphthalen-1-yl)-8-fluoropyrido[4,3-d]pyrimidin-2-yl)oxy)ethyl)pyridin-2-amine] as the compound, how does the IC50 read?
Its IC50 is 891 nM.

Which IC50 does the source give for `Cn1nccc1CCOc1nc(N2C[C@H]3CC[C@@H](C2)N3)c2cnc(-c3cccc4cccc(Cl)c34)c(F)c2n1` [Example 144, 4-((1R,5S)-3,8-diazabicyclo[3.2.1]octan-3-yl)-7-(8-chloronaphthalen-1-yl)-8-fluoro-2-(2-(1-methyl-1H-pyrazol-5-yl)ethoxy)pyrido[4,3-d]pyrimidine] here?
The IC50 was 1700 nM.

With `Cn1ccc(CCOc2nc(N3C[C@H]4CC[C@@H](C3)N4)c3cnc(-c4cccc5cccc(Cl)c45)c(F)c3n2)n1` [Example 145, 4-((1R,5S)-3,8-diazabicyclo[3.2.1]octan-3-yl)-7-(8-chloronaphthalen-1-yl)-8-fluoro-2-(2-(1-methyl-1H-pyrazol-3-yl)ethoxy)pyrido[4,3-d]pyrimidine] as the compound, how does the IC50 read?
The IC50 was 5000 nM.

With `Cn1cc(CCOc2nc(N3C[C@H]4CC[C@@H](C3)N4)c3cnc(-c4cccc5cccc(Cl)c45)c(F)c3n2)cn1` [Example 146, 4-((1R,5S)-3,8-diazabicyclo[3.2.1]octan-3-yl)-7-(8-chloronaphthalen-1-yl)-8-fluoro-2-(2-(1-methyl-1H-pyrazol-4-yl)ethoxy)pyrido[4,3-d]pyrimidine] as the compound, how does the IC50 read?
Its IC50 is 2290 nM.

For `Cn1cnc2ccc(Oc3nc(N4C[C@H]5CC[C@@H](C4)N5)c4cnc(-c5cccc6cccc(Cl)c56)c(F)c4n3)cc21` [Example 148, 4-((1R,5S)-3,8-diazabicyclo[3.2.1]octan-3-yl)-7-(8-chloronaphthalen-1-yl)-8-fluoro-2-((1-methyl-1H-benzo[d]imidazol-6-yl)oxy)pyrido[4,3-d]pyrimidine], which IC50 is on record?
The IC50 was 5180 nM.

With `CO[C@H]1C[C@@H](COc2nc(N3C[C@H]4CC[C@@H](C3)N4)c3cnc(-c4cccc5cccc(Cl)c45)c(F)c3n2)N(C)C1` [Example 149, 4-((1R,5S)-3,8-diazabicyclo[3.2.1]octan-3-yl)-7-(8-chloronaphthalen-1-yl)-8-fluoro-2-(((2S,4S)-4-methoxy-1-methylpyrrolidin-2-yl)methoxy)pyrido[4,3-d]pyrimidine] as the compound, how does the IC50 read?
The IC50 was 870 nM.

Which IC50 does the source give for `Fc1c(-c2cccc3cccc(Cl)c23)ncc2c(N3C[C@H]4CC[C@@H](C3)N4)nc(OCc3cccn4ccnc34)nc12` [Example 150, 4-((1R,5S)-3,8-diazabicyclo[3.2.1]octan-3-yl)-7-(8-chloronaphthalen-1-yl)-8-fluoro-2-(imidazo[1,2-a]pyridin-8-ylmethoxy)pyrido[4,3-d]pyrimidine] here?
Its IC50 is 1980 nM.

How did the IC50 turn out when `O[C@@H]1C[C@@H]2CN(c3nc(N4CCC4)nc4c(F)c(-c5cccc6cccc(Cl)c56)ncc34)C[C@H]1N2` [Example 152, (1R,5R,6R)-3-(2-(azetidin-1-yl)-7-(8-chloronaphthalen-1-yl)-8-fluoropyrido[4,3-d]pyrimidin-4-yl)-3,8-diazabicyclo[3.2.1]octan-6-ol] was run?
The IC50 was 2650 nM.

With `Cn1cnnc1CCOc1nc(N2C[C@H]3CC[C@@H](C2)N3)c2cnc(-c3cccc4cccc(Cl)c34)c(F)c2n1` [Example 154, 4-((1R,5S)-3,8-diazabicyclo[3.2.1]octan-3-yl)-7-(8-chloronaphthalen-1-yl)-8-fluoro-2-(2-(4-methyl-4H-1,2,4-triazol-3-yl)ethoxy)pyrido[4,3-d]pyrimidine] as the compound, how does the IC50 read?
The IC50 was 6530 nM.

`O[C@@H]1C[C@@H]2CN(c3nc(OCCC(F)(F)F)nc4c(F)c(-c5cccc6cccc(Cl)c56)ncc34)C[C@H]1N2` [Example 155, (1R,5R,6R)-3-(7-(8-chloronaphthalen-1-yl)-8-fluoro-2-(3,3,3-trifluoropropoxy)pyrido[4,3-d]pyrimidin-4-yl)-3,8-diazabicyclo[3.2.1]octan-6-ol] was tested. Which IC50 did it give?
The IC50 was 3420 nM.

For `CN1CCC[C@H]1COc1nc(N2CC3CCC(C(N)=O)(C2)N3)c2cnc(-c3cc(O)cc4ccccc34)c(F)c2n1` (stereo partly drawn) [Example 159, 3-(8-fluoro-7-(3-hydroxynaphthalen-1-yl)-2-(((S)-1-methylpyrrolidin-2-yl)methoxy)pyrido[4,3-d]pyrimidin-4-yl)-3,8-diazabicyclo[3.2.1]octane-1-carboxamide bis(2,2,2-trifluoroacetate)], which IC50 is on record?
The IC50 was 331 nM.

For `O=C(CCl)N1CCC(Oc2nc(N3C[C@H]4CC[C@@H](C3)N4)c3cnc(-c4cccc5cccc(Cl)c45)c(F)c3n2)CC1` [Example 163, 1-(4-((4-((1R,5S)-3,8-diazabicyclo[3.2.1]octan-3-yl)-7-(8-chloronaphthalen-1-yl)-8-fluoropyrido[4,3-d]pyrimidin-2-yl)oxy)piperidin-1-yl)-2-chloroethan-1-one bis(2,2,2-trifluoroacetate)], which IC50 is on record?
The IC50 was 5550 nM.

For `O[C@@H]1C[C@@H]2CN(c3nc(OCCc4nccn4C(F)F)nc4c(F)c(-c5cccc6cccc(Cl)c56)ncc34)C[C@H]1N2` [Example 166, (1R,5R,6R)-3-(7-(8-chloronaphthalen-1-yl)-2-(2-(1-(difluoromethyl)-1H-imidazol-2-yl)ethoxy)-8-fluoropyrido[4,3-d]pyrimidin-4-yl)-3,8-diazabicyclo[3.2.1]octan-6-ol], which IC50 is on record?
The IC50 was 1290 nM.

With `Cc1nccn1CCOc1nc(N2C[C@H]3C[C@@H](O)[C@@H](C2)N3)c2cnc(-c3cccc4cccc(Cl)c34)c(F)c2n1` [Example 167, (1R,5R,6R)-3-(7-(8-chloronaphthalen-1-yl)-8-fluoro-2-(2-(2-methyl-1H-imidazol-1-yl)ethoxy)pyrido[4,3-d]pyrimidin-4-yl)-3,8-diazabicyclo[3.2.1]octan-6-ol] as the compound, how does the IC50 read?
Its IC50 is 226 nM.

`O[C@@H]1C[C@@H]2CN(c3nc(OCCn4ccnc4CF)nc4c(F)c(-c5cccc6cccc(Cl)c56)ncc34)C[C@H]1N2` [Example 168, (1R,5R,6R)-3-(7-(8-chloronaphthalen-1-yl)-8-fluoro-2-(2-(2-(fluoromethyl)-1H-imidazol-1-yl)ethoxy)pyrido[4,3-d]pyrimidin-4-yl)-3,8-diazabicyclo[3.2.1]octan-6-ol] was tested. Which IC50 did it give?
Its IC50 is 583 nM.

How did the IC50 turn out when `O[C@@H]1C[C@@H]2CN(c3nc(OCCn4ccnc4C(F)(F)F)nc4c(F)c(-c5cccc6cccc(Cl)c56)ncc34)C[C@H]1N2` [Example 169, (1R,5R,6R)-3-(7-(8-chloronaphthalen-1-yl)-8-fluoro-2-(2-(2-(trifluoromethyl)-1H-imidazol-1-yl)ethoxy)pyrido[4,3-d]pyrimidin-4-yl)-3,8-diazabicyclo[3.2.1]octan-6-ol] was run?
The IC50 was 657 nM.

With `O[C@@H]1C[C@@H]2CN(c3nc(OCCc4nccn4CF)nc4c(F)c(-c5cccc6cccc(Cl)c56)ncc34)C[C@H]1N2` [Example 170, (1R,5R,6R)-3-(7-(8-chloronaphthalen-1-yl)-8-fluoro-2-(2-(1-(fluoromethyl)-1H-imidazol-2-yl)ethoxy)pyrido[4,3-d]pyrimidin-4-yl)-3,8-diazabicyclo[3.2.1]octan-6-ol] as the compound, how does the IC50 read?
The IC50 was 842 nM.

How did the IC50 turn out when `OCc1nccn1CCOc1nc(N2CC3CCC(C2)N3)c2cnc(-c3cccc4cccc(Cl)c34)c(F)c2n1` [Example 171, (1-(2-((4-(3,8-diazabicyclo[3.2.1]octan-3-yl)-7-(8-chloronaphthalen-1-yl)-8-fluoropyrido[4,3-d]pyrimidin-2-yl)oxy)ethyl)-1H-imidazol-2-yl)methanol] was run?
The IC50 was 757 nM.

How did the IC50 turn out when `O[C@@H]1C[C@@H]2CN(c3nc(OCCn4ccnc4C(F)F)nc4c(F)c(-c5cccc6cccc(Cl)c56)ncc34)C[C@H]1N2` [Example 172, (1R,5R,6R)-3-(7-(8-chloronaphthalen-1-yl)-2-(2-(2-(difluoromethyl)-1H-imidazol-1-yl)ethoxy)-8-fluoropyrido[4,3-d]pyrimidin-4-yl)-3,8-diazabicyclo[3.2.1]octan-6-ol] was run?
The IC50 was 689 nM.

Which IC50 does the source give for `Cc1cc(-c2ncc3c(N4C[C@H]5CC[C@@H](C4)N5)nc(OCC45CCCN4CCC5)nc3c2F)c2c(Cl)cccc2c1` [Example 175, 4-((1R,5S)-3,8-diazabicyclo[3.2.1]octan-3-yl)-7-(8-chloro-3-methylnaphthalen-1-yl)-8-fluoro-2-((hexahydro-1H-pyrrolizin-7a-yl)methoxy)pyrido[4,3-d]pyrimidine] here?
The IC50 was 63.8 nM.

How did the IC50 turn out when `N=C(N)NCCOc1nc(N2CC3CCC(C2)N3)c2cnc(-c3cccc4cccc(Cl)c34)c(F)c2n1` [Example 176, 1-[2-[7-(8-chloro-1-naphthyl)-4-(3,8-diazabicyclo[3.2.1]octan-3-yl)-8-fluoro-pyrido[4,3-d]pyrimidin-2-yl]oxyethyl]guanidine] was run?
Its IC50 is 235 nM.

How did the IC50 turn out when `N=C(N)NCCCOc1nc(N2CC3CCC(C2)N3)c2cnc(-c3cccc4cccc(Cl)c34)c(F)c2n1` [Example 177, 1-[3-[7-(8-chloro-1-naphthyl)-4-(3,8-diazabicyclo[3.2.1]octan-3-yl)-8-fluoro-pyrido[4,3-d]pyrimidin-2-yl]oxypropyl]guanidine] was run?
The IC50 was 187 nM.

`Nc1nccn1CCOc1nc(N2CC3CCC(C2)N3)c2cnc(-c3cccc4cccc(Cl)c34)c(F)c2n1` [Example 178, 1-[2-[7-(8-chloro-1-naphthyl)-4-(3,8-diazabicyclo[3.2.1]octan-3-yl)-8-fluoro-pyrido[4,3-d]pyrimidin-2-yl]oxyethyl]imidazol-2-amine] was tested. Which IC50 did it give?
Its IC50 is 105 nM.

`Fc1c(-c2cccc3cccc(-c4c[nH]nn4)c23)ncc2c(N3C[C@H]4CC[C@@H](C3)N4)nc(OCC34CCCN3CCC4)nc12` [Example 180, 7-(8-(1H-1,2,3-triazol-4-yl)naphthalen-1-yl)-4-((1R,5S)-3,8-diazabicyclo[3.2.1]octan-3-yl)-8-fluoro-2-((hexahydro-1H-pyrrolizin-7a-yl)methoxy)pyrido[4,3-d]pyrimidine] was tested. Which IC50 did it give?
Its IC50 is 76.1 nM.
